± gives the expanded uncertainty stated by the source.
Legend:
[1] = Liquid, Ebulliometric method (Recirculating still)
[2] = refractive index (Na D-line) (dimensionless); details: 293.15 K; 101.33 kPa; Liquid; Standard Abbe refractometry

| vapor or sublimation pressure ([1]; 323 K) | vapor or sublimation pressure ([1]; 343.4 K) | vapor or sublimation pressure ([1]; 353.2 K) | vapor or sublimation pressure ([1]; 363.1 K) | vapor or sublimation pressure ([1]; 369.2 K) | refractive index [2] | SMILES |
| --- | --- | --- | --- | --- | --- | --- |
| 12.11 ± 1.2 kPa | 32.82 ± 1.2 kPa | 50.82 ± 1.3 kPa | 76.67 ± 1.4 kPa | 96.66 ± 1.4 kPa | 1.382 ± 0.0007 | CCCO [propan-1-ol] |
| 0.12 kPa | 0.46 kPa | 0.73 ± 1.2 kPa | 1.31 ± 1.2 kPa | 1.76 ± 1.2 kPa | 1.4192 ± 0.0007 | CCCCCCCCCCCC [dodecane] |
